According to PMC3867523 (Journal of hepatology, 2013):
Ends that are not written are not given here.

Biological target: HLA-B*27:05 (Homo sapiens, UniProt P01889, D138H/D201E/E176V/E204Q/G107R/H137Y/K202T/N104T/N87E/Q56L/Q94K/R106L/R155S/R180L/S101D/S121N/S48T/Y140D/Y33H/Y91C)
Test: biochemical
Assay type: binding

ARMILMTHF [NS5B-2841]
IC50: 1.1 nM

ARHTPVNSW [NS5B-2820]
IC50: 338 nM

GRAAICGKY [NS5B-2936]
IC50: 1 nM
